Experiments:
[1] = molecular target: T1, Sphingomyelinase from human placenta (human L-ASM) (Homo sapiens, UniProt P17405); test: SMase assay with natural substrate sphingomyelin; assay type: biochemical; conditions: maximal inhibition; for Maximal resp., natural substrate (pH 5.0): pH 5.0 buffer; for Maximal resp., natural substrate (pH 6.5): pH 6.5 buffer
T1 sequence (P17405 47-631): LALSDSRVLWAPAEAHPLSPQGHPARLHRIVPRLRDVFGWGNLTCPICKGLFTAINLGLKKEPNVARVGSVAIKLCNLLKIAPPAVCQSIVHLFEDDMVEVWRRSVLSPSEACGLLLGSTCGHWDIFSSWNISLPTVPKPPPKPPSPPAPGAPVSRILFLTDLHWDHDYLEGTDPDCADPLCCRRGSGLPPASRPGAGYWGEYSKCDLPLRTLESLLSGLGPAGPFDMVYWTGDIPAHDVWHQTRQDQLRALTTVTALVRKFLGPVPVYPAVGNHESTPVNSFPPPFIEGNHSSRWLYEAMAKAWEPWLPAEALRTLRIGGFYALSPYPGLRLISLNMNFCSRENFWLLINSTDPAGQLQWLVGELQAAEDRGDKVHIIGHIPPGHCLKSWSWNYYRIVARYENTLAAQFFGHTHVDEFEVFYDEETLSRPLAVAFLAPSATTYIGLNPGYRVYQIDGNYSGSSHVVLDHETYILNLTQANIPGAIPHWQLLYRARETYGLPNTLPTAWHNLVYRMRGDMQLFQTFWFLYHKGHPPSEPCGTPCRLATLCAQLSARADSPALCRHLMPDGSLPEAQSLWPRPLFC

[2] = molecular target: T1, Sphingomyelinase from human placenta (human L-ASM); test: SMase assay using HMU-PC profluorescence substrate; assay type: biochemical; conditions: maximal inhibition, artificial substrate HMU-PC

O=C1CC(c2ccccc2)CC(=O)C1CS(=O)(=O)c1ccccc1 (stereo not drawn) [MLS000720877]
Maximal resp., natural substrate (pH 5.0) [1]: 31.1%
Maximal resp., natural substrate (pH 6.5) [1]: 61.6%
Maximal resp., HMU-PC substrate (pH 5.0) [2]: 99.2%

COc1ccc(C2=NN(C(=O)COC(=O)c3ccc(S(C)(=O)=O)c([N+](=O)[O-])c3)C(c3ccco3)C2)cc1 (stereo not drawn) [MLS002248315]
Maximal resp., natural substrate (pH 5.0) [1]: 0.8%
Maximal resp., natural substrate (pH 6.5) [1]: 8.6%
Maximal resp., HMU-PC substrate (pH 5.0) [2]: 31.4%

COC(=O)C1=C(C)N(Cc2ccc(C)cc2)C(=O)/C1=C\c1ccc(O)c(OC)c1 [MLS000574110]
Maximal resp., natural substrate (pH 5.0) [1]: 79.1%
Maximal resp., natural substrate (pH 6.5) [1]: 84.8%
Maximal resp., HMU-PC substrate (pH 5.0) [2]: 82.1%

Clc1ccc(SCCOCCN2CCCCCC2)cc1.O=C(O)C(=O)O [MLS001164567]
Maximal resp., natural substrate (pH 5.0) [1]: 97.8%
Maximal resp., natural substrate (pH 6.5) [1]: 100.7%
Maximal resp., HMU-PC substrate (pH 5.0) [2]: 15.8%

O=S(=O)(Nc1ccc(N=Nc2ccc(O)c3ccccc23)cc1)c1ccccc1 [MLS000707545]
Maximal resp., natural substrate (pH 5.0) [1]: 72.0%
Maximal resp., natural substrate (pH 6.5) [1]: 77.2%
Maximal resp., HMU-PC substrate (pH 5.0) [2]: 93.4%

CCS(=O)(=O)C1=NN2C(=N)/C(=C\c3ccc(OC(=O)c4ccco4)cc3)C(=O)N=C2S1 [MLS000950682]
Maximal resp., natural substrate (pH 5.0) [1]: 43.4%
Maximal resp., natural substrate (pH 6.5) [1]: 71.2%
Maximal resp., HMU-PC substrate (pH 5.0) [2]: 79.0%

O=c1c(O)c(-c2cccs2)oc2ccccc12 [MLS000097140]
Maximal resp., natural substrate (pH 5.0) [1]: 81.7%
Maximal resp., natural substrate (pH 6.5) [1]: 82.7%
Maximal resp., HMU-PC substrate (pH 5.0) [2]: 6.2%

COc1cc(C(=O)Nc2scc(-c3ccc(Br)cc3)c2C(=O)O)cc(OC)c1OC [MLS001164606]
Maximal resp., natural substrate (pH 5.0) [1]: 9.1%
Maximal resp., natural substrate (pH 6.5) [1]: 26.8%
Maximal resp., HMU-PC substrate (pH 5.0) [2]: 51.8%

S=c1nc(C2CC2)[nH]c2ccccc12 [MLS000097294]
Maximal resp., natural substrate (pH 5.0) [1]: 103.2%
Maximal resp., natural substrate (pH 6.5) [1]: 104.4%
Maximal resp., HMU-PC substrate (pH 5.0) [2]: 99.1%
